What was measured:
[1] = biological target: proteins of HEK293T cells transiently overexpressing caspase-6 (Homo sapiens, UniProt O00541); type: cell-based; conditions: protein PES1 (O00541); exp_ref Probe; analysis C6
[2] = biological target: proteins of HEK293T cells transiently overexpressing caspase-6 (Homo sapiens, UniProt P21796); type: cell-based; conditions: Probe; protein VDAC1 P21796
[3] = biological target: proteins of HEK293T cells transiently overexpressing caspase-6 (Homo sapiens, UniProt P49327); type: cell-based; conditions: exp_ref Probe; protein FASN (P49327); analysis C6
[4] = biological target: proteins of HEK293T cells transiently overexpressing caspase-6 (Homo sapiens, UniProt Q86YZ3); type: cell-based; conditions: Probe; protein HRNR Q86YZ3
[5] = biological target: proteins of HEK293T cells transiently overexpressing caspase-6 (Homo sapiens, UniProt Q9NZI8); type: cell-based; conditions: Probe; protein IGF2BP1 Q9NZI8
[6] = biological target: T1, proteins of HEK293T cells transiently overexpressing caspase-6 (Homo sapiens, UniProt O00567); assay: SILAC proteomics / in-gel fluorescence, competition of probe 13-t labeling by 3a
T1 sequence (O00567 1-594): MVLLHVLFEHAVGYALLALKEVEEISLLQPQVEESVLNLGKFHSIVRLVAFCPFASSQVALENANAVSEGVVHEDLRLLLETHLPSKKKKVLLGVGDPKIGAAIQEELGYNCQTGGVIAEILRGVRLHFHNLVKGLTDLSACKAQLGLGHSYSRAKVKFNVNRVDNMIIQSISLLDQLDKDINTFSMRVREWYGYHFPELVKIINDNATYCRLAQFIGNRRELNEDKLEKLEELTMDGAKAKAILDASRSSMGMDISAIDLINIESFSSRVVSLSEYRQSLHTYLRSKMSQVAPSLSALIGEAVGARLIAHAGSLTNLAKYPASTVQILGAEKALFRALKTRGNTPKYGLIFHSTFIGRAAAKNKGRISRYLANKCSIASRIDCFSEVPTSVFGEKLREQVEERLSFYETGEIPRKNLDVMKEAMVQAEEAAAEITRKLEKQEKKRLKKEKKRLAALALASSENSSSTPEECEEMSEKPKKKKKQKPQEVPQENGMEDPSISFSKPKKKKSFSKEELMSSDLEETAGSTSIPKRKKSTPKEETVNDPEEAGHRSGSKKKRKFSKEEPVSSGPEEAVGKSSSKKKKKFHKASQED
Protocol: (§1) Cells were lysed, and heavy and light SILAC lysates were combined in a 1:1 ratio and subjected to CuAAC reaction with azido-biotin to biotinylate probe-labeled proteins for subsequent capture on streptavidin-coated beads. Bead-bound proteins were split for analysis by in-gel fluorescence and tryptic digestion on-bead for LC–MS/MS analysis.
(§2) SILAC labeling and alkyne probe treatment: HEK293T cells were seeded into 8x 15 cm plates at
(§3) a density of 500,000 cells/plate. 4 of these plates were grown in light SILAC DMEM and 4 were
(§4) grown in heavy SILAC DMEM all containing 10% FBS and 4.5g/L glucose. The next day, all 8
(§5) plates were transfected with a pCMV6-Entry plasmid coding for caspase-6-myc-DDK lacking the
(§6) prodomain. After 24 hours, media was replaced with fresh SILAC growth media containing 4.5 g/L
(§7) glucose and 3% FBS. 24 hours later the plates were treated with probe and inhibitor for 1 hours as
(§8) follows: 2 of the light plates were treated with vehicle, 2 light plates and 2 heavy plates treated with
(§9) for 60 minutes. After treatment, media was removed, and cells were washed with 15 mL PBS for 5
(§10) minutes. Cells were then harvested by scraping in cold PBS and lysed in the presence of Roche
(§11) complete protease inhibitors. Lysates were clarified by centrifugation at 10,000xg for 10 minutes and
(§12) the protein in the supernatant was quantified by BCA assay.
(§13) Proteomics assay: 1 mg of each lysate was diluted to 2mg/ml in PBS with Roche complete protease
(§14) inhibitors. To this was added 0.1 mM biotin-azide, 1 mM tris(2-carboxyethyl)phosphine (TCEP), 0.1
(§15) mM Tris((1-benzyl-4-triazolyl)methyl)amine (TBTA) ligand, and 1 mM CuSO4 in a final volume of
(§16) 0.5 mL. The reaction was incubated at room temperature for 1 hour and was vortexed every 15
(§17) minutes. After 1 hour, proteins are precipitated and are pelleted by centrifuging at 16,000xg for 4
(§18) min at 4 °C. The supernatants were discarded, and the pellets were solubilized with 0.5 mL cold
(§19) The cold methanol wash was then repeated, and the washed
(§20) pellets were resuspended in 1 mL of 1.2% SDS and sonicated until clear. The samples were heat
(§21) denatured at 80-90 °C for 5 minutes and any insoluble particles were removed by centrifugation at
(§22) 6,500xg for 5 minutes. The 1 mL supernatant was transferred to a 15 mL conical tubes containing 5
(§23) mL of PBS and 150 µL of washed neutravidin beads were added. The samples were incubated for 2
(§24) hours at 4 °C while rotating, at which point the samples were warmed to resolubilize any precipitated
(§25) SDS. The beads were pelleted by centrifugation at 1400xg for 3 min and washed for 10 minutes with
(§26) the following solutions: 2x 1% NP-40, 2x PBS + 1 M NaCl, and 2x 50 mM ammonium bicarbonate
(§27) (ABC) + 2 M urea. The beads were then transferred to a 1.5 mL microcentrifuge tube using 2x250
(§28) µL 100 mM Tris pH 8.0 + 4 M Guanidium hydrochloride (final volume 500 µL).

[7] = biological target: proteins of HEK293T cells transiently overexpressing caspase-6 (Homo sapiens, UniProt P07437); assay: as above; conditions: Comp; protein TUBB P07437
Protocol: as §1, §2, §3, §4, §5, §6, §7, §8, §9, §10, §11, §12, §13, §14, §15, §16, §17, §18, §19, §20, §21, §22, §23, §24, §25, §26, §27, §28

[8] = biological target: proteins of HEK293T cells transiently overexpressing caspase-6 (Homo sapiens, UniProt P10809); assay: as above; conditions: Comp; protein HSPD1 P10809
Protocol: as §1, §2, §3, §4, §5, §6, §7, §8, §9, §10, §11, §12, §13, §14, §15, §16, §17, §18, §19, §20, §21, §22, §23, §24, §25, §26, §27, §28

[9] = biological target: proteins of HEK293T cells transiently overexpressing caspase-6 (Homo sapiens, UniProt P11021); assay: as above
Protocol: as §1, §2, §3, §4, §5, §6, §7, §8, §9, §10, §11, §12, §13, §14, §15, §16, §17, §18, §19, §20, §21, §22, §23, §24, §25, §26, §27, §28

[10] = biological target: proteins of HEK293T cells transiently overexpressing caspase-6 (Homo sapiens, UniProt P27348); assay: as above; conditions: Comp; protein YWHAQ P27348
Protocol: as §1, §2, §3, §4, §5, §6, §7, §8, §9, §10, §11, §12, §13, §14, §15, §16, §17, §18, §19, §20, §21, §22, §23, §24, §25, §26, §27, §28

[11] = biological target: proteins of HEK293T cells transiently overexpressing caspase-6 (Homo sapiens, UniProt P27695); assay: as above; conditions: Comp; protein APEX1 P27695
Protocol: as §1, §2, §3, §4, §5, §6, §7, §8, §9, §10, §11, §12, §13, §14, §15, §16, §17, §18, §19, §20, §21, §22, §23, §24, §25, §26, §27, §28

[12] = biological target: proteins of HEK293T cells transiently overexpressing caspase-6 (Homo sapiens, UniProt P31689); assay: as above
Protocol: as §1, §2, §3, §4, §5, §6, §7, §8, §9, §10, §11, §12, §13, §14, §15, §16, §17, §18, §19, §20, §21, §22, §23, §24, §25, §26, §27, §28

[13] = biological target: T2, proteins of HEK293T cells transiently overexpressing caspase-6 (Homo sapiens, UniProt P40926); assay: as above; conditions: Comp; protein MDH2 P40926
T2 sequence (P40926 25-338): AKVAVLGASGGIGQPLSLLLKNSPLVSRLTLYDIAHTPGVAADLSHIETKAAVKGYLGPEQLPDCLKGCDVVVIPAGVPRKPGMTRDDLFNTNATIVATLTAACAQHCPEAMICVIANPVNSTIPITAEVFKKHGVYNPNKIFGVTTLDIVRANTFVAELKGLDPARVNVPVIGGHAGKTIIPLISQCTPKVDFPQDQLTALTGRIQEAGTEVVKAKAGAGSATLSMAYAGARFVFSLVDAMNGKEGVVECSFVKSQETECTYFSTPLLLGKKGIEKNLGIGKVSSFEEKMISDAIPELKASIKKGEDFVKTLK
Protocol: as §1, §2, §3, §4, §5, §6, §7, §8, §9, §10, §11, §12, §13, §14, §15, §16, §17, §18, §19, §20, §21, §22, §23, §24, §25, §26, §27, §28

[14] = biological target: proteins of HEK293T cells transiently overexpressing caspase-6 (Homo sapiens, UniProt P42704); assay: as above; conditions: Comp; protein LRPPRC P42704
Protocol: as §1, §2, §3, §4, §5, §6, §7, §8, §9, §10, §11, §12, §13, §14, §15, §16, §17, §18, §19, §20, §21, §22, §23, §24, §25, §26, §27, §28

[15] = biological target: proteins of HEK293T cells transiently overexpressing caspase-6 (Homo sapiens, UniProt P55884); assay: as above; conditions: Comp; protein EIF3B P55884
Protocol: as §1, §2, §3, §4, §5, §6, §7, §8, §9, §10, §11, §12, §13, §14, §15, §16, §17, §18, §19, §20, §21, §22, §23, §24, §25, §26, §27, §28

[16] = biological target: proteins of HEK293T cells transiently overexpressing caspase-6 (Homo sapiens, UniProt P62280); assay: as above; conditions: Comp; protein RPS11 P62280
Protocol: as §1, §2, §3, §4, §5, §6, §7, §8, §9, §10, §11, §12, §13, §14, §15, §16, §17, §18, §19, §20, §21, §22, §23, §24, §25, §26, §27, §28

[17] = protein NOP56 (O00567), Exp Comp, analysis C6, p 0.1250, 4 peptides
[18] = protein HSPA5 (P11021), Exp Comp, analysis C6, p 0.000244, 13 peptides
[19] = protein DNAJA1 (P31689), Exp Comp, analysis C6, p 0.0625, 5 peptides

proteins of HEK293T cells transiently overexpressing caspase-6 (Homo sapiens, UniProt P31689), sequence (P31689 whole entry): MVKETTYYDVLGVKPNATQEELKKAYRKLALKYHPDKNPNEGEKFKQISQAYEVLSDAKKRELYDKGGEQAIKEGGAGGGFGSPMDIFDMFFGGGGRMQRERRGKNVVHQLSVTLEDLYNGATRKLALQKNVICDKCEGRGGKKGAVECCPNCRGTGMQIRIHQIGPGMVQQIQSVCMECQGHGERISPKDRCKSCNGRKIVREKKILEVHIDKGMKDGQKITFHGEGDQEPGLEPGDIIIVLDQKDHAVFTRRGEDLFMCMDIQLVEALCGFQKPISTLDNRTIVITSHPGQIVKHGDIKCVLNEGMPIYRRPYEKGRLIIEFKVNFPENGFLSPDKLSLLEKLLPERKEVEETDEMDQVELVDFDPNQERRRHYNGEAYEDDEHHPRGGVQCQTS
proteins of HEK293T cells transiently overexpressing caspase-6 (Homo sapiens, UniProt P11021), sequence (P11021 19-654): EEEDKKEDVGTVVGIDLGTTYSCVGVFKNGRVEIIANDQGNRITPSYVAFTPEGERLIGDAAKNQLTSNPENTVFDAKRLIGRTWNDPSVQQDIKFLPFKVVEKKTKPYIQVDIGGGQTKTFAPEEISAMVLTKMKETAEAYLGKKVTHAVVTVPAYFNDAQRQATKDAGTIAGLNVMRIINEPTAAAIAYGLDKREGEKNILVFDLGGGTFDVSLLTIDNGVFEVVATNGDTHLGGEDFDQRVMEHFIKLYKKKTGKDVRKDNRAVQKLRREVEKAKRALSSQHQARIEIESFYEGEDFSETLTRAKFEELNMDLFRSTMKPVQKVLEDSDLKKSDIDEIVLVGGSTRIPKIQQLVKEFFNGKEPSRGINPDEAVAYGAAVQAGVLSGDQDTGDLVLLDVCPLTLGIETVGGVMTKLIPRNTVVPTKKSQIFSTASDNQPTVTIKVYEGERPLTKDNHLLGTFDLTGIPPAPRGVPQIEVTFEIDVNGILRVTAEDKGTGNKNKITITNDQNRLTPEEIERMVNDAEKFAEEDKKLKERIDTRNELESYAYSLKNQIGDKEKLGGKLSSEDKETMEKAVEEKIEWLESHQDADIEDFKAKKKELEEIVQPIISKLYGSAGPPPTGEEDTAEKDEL
proteins of HEK293T cells transiently overexpressing caspase-6 (Homo sapiens, UniProt Q9NZI8), sequence (Q9NZI8 whole entry): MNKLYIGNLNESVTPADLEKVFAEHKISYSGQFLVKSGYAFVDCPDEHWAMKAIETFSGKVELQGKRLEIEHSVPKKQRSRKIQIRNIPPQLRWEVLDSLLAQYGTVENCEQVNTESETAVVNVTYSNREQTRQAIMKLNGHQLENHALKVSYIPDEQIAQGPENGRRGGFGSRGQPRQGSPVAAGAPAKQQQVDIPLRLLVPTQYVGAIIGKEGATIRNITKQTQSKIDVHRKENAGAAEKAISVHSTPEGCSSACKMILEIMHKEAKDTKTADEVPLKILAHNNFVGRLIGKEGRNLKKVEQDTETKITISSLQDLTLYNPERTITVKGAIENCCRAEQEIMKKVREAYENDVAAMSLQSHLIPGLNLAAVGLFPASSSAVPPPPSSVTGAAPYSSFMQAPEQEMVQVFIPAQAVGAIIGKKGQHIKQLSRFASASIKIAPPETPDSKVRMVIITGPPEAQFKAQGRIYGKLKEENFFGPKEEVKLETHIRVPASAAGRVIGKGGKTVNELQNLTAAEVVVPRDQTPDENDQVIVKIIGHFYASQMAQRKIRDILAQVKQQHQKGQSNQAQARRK
proteins of HEK293T cells transiently overexpressing caspase-6 (Homo sapiens, UniProt P10809), sequence (P10809 27-573): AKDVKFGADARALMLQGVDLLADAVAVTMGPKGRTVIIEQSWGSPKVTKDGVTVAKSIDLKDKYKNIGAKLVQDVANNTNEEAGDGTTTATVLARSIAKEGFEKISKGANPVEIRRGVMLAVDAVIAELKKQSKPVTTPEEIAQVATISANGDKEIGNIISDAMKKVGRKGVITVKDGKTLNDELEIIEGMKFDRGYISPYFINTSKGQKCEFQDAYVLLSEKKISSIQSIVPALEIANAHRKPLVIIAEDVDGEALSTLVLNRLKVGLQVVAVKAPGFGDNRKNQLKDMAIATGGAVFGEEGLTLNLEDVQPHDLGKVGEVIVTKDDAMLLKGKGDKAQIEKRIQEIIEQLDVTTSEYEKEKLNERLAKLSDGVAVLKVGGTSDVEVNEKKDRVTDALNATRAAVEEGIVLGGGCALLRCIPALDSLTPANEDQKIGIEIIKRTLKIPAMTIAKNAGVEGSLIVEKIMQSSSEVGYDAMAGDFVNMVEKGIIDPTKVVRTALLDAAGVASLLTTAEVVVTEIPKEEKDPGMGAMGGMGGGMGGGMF
proteins of HEK293T cells transiently overexpressing caspase-6 (Homo sapiens, UniProt Q86YZ3), sequence (Q86YZ3 whole entry): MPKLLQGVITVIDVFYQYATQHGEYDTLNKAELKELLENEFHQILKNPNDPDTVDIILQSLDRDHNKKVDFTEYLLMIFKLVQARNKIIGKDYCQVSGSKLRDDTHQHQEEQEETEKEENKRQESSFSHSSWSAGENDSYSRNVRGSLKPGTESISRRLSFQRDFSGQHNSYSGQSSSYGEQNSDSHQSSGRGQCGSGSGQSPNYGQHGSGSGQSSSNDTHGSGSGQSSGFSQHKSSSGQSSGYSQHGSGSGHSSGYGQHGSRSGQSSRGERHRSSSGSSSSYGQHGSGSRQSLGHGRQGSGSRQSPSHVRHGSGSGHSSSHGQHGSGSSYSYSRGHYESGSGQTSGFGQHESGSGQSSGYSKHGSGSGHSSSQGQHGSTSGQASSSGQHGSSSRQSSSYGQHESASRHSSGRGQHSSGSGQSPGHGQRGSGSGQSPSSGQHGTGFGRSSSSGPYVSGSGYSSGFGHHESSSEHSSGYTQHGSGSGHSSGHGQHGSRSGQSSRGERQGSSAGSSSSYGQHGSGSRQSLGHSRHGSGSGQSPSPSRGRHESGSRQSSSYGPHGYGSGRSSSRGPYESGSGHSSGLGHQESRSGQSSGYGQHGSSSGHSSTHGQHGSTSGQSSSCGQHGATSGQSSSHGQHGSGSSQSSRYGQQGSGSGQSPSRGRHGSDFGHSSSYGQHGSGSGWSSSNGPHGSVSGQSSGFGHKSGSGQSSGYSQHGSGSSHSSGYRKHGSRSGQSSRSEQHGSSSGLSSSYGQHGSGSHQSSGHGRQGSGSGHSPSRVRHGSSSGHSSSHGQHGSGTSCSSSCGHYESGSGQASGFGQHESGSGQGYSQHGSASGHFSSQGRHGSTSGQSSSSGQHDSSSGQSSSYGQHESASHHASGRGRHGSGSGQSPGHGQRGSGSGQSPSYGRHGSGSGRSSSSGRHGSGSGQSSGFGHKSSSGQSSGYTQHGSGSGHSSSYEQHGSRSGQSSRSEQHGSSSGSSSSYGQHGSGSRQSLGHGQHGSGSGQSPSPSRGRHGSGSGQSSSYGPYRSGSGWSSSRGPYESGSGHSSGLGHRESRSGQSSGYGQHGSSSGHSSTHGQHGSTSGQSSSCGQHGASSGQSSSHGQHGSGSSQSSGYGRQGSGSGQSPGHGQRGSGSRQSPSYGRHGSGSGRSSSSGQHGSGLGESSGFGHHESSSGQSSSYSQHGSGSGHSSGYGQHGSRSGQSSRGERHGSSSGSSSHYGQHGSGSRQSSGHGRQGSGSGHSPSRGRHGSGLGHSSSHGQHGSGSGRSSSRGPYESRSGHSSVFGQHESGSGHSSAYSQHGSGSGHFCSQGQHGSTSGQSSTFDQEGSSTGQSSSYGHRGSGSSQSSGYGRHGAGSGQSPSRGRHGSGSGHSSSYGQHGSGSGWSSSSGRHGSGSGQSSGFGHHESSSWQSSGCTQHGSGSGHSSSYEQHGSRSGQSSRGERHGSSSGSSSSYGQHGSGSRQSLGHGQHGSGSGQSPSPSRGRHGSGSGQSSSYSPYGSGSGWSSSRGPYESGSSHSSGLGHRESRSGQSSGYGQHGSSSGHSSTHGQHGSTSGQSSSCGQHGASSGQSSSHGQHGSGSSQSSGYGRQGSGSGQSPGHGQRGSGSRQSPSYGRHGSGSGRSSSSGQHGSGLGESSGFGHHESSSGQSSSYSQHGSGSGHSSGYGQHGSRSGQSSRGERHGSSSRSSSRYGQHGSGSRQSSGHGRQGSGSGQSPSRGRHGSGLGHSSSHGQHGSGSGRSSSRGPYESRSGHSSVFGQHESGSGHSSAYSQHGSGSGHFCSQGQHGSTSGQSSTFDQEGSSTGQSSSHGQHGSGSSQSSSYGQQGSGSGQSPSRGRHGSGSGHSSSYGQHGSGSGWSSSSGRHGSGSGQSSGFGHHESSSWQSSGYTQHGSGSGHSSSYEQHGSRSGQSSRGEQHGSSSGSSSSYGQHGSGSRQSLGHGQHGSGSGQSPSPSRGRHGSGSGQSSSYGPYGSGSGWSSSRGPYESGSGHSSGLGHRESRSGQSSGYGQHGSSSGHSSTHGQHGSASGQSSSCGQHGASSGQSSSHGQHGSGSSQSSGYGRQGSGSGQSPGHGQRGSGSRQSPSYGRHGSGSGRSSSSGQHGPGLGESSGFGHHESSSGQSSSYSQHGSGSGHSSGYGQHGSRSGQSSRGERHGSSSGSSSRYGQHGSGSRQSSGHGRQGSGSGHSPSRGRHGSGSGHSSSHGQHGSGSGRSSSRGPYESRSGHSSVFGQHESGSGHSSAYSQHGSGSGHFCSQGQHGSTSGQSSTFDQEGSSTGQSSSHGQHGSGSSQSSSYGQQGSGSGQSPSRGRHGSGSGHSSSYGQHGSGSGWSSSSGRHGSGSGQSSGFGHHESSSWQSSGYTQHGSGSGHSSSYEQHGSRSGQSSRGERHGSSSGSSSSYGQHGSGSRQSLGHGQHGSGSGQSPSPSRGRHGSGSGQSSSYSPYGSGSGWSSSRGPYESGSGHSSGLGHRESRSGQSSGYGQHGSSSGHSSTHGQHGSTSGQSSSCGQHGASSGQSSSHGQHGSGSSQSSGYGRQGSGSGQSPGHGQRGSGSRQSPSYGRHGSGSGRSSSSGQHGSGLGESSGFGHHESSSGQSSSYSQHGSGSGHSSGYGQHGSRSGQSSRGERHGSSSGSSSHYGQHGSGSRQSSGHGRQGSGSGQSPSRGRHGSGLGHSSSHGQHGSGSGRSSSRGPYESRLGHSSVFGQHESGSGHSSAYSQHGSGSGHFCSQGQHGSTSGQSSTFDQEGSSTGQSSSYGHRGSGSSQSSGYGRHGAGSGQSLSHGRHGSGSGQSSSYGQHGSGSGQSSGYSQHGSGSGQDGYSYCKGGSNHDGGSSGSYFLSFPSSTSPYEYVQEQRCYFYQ

C#CCOc1ccc([C@@H]2C[C@@H](C(=O)Nc3ccc(OC(F)(F)F)cc3)CN(S(=O)(=O)C=C)C2)cc1 (relative stereo) [13-t]
enrich.exp.med [1]: 1.47
enrich.exp.med [2]: -1.18
enrich.exp.med [3]: -0.2577
enrich.exp.med [4]: -8.887
enrich.exp.med [5]: -0.7898

C=CS(=O)(=O)N1C[C@H](C(=O)Nc2ccc(OC(F)(F)F)cc2)C[C@@H](c2ccccc2)C1 [3a]
enrich.exp.med ([6]; Comp, protein NOP56 O00567): 1.117
enrich.exp.med.lin [6, 17]: 2.169
enrich.exp.med.log2 [6, 17]: 1.117
enrich.exp.med [7]: 0.8512
enrich.exp.med [8]: 0.6402
enrich.exp.med ([9]; Comp, protein HSPA5 P11021): 1.086
enrich.exp.med.lin [9, 18]: 2.123
enrich.exp.med.log2 [9, 18]: 1.086
enrich.exp.med [10]: 0.7747
enrich.exp.med [11]: 0.6367
enrich.exp.med ([12]; Comp, protein DNAJA1 P31689): 1.02
enrich.exp.med.lin [12, 19]: 2.028
enrich.exp.med.log2 [12, 19]: 1.02
enrich.exp.med [13]: 0.5931
enrich.exp.med [14]: 0.6677
enrich.exp.med [15]: 0.6413
enrich.exp.med [16]: 0.7926

Source: PMC10176470, “Engaging a Non-catalytic Cysteine Residue Drives Potent and Selective Inhibition of Caspase-6” (Journal of the American Chemical Society, 2023)
